# Measurements taken from ChEMBL document CHEMBL1201862, “PubChem BioAssay data set” (2004).
# The source made the active and inactive calls.
# Experiments:
# [1] = target: Voltage-dependent T-type calcium channel subunit alpha-1H (Homo sapiens, UniProt O95180); assay: Cav3.2 T-type channel blockers, cell-based, SynthLib3 library, HEK293 Cav3.2, fluorescence (AID 493041); format: functional
# Cytochrome P450 2D6 = Cytochrome P450 2D6 (Homo sapiens, UniProt P10635);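 also: CYP2D6 member of a cytochrome P450 panel assay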
# [2] = target: T1, Short transient receptor potential channel 4 (Mus musculus, UniProt Q9QUQ5); assay: TRPC4 inhibitor concentration-response, dose response, cell-based, HEK293 TRPC4/mu-opioid, DAMGO stimulus, Fluo-4 (AID 492994); format: functional
# T1 sequence (Q9QUQ5 whole entry): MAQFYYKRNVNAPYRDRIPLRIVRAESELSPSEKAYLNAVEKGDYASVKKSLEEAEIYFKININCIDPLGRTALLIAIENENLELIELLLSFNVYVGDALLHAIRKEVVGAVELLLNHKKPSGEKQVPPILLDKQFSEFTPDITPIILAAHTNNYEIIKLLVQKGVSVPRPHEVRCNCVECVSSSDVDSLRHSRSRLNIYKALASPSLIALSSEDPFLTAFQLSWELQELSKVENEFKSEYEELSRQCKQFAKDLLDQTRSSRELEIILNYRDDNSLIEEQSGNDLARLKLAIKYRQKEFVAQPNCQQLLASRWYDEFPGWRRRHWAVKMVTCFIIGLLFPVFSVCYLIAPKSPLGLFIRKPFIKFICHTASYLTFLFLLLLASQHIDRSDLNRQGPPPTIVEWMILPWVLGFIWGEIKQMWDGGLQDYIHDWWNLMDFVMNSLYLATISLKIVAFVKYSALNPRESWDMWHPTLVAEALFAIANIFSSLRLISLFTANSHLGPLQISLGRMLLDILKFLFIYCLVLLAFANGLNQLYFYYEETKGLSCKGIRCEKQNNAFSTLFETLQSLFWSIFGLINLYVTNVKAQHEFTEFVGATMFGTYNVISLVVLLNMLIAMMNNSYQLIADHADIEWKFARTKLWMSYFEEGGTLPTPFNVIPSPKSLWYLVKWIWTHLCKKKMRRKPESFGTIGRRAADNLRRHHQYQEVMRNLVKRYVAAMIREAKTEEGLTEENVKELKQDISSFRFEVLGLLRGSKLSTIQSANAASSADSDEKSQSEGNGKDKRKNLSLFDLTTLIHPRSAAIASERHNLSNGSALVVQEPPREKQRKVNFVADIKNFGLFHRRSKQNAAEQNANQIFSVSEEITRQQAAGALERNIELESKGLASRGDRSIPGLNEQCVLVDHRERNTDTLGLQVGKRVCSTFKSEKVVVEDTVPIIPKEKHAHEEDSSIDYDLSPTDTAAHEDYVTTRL
# [3] = target: T1, Short transient receptor potential channel 4; assay: SAR Analysis for the identification of selective inhibits of the transient receptor potential cation channel C4 (TRPC4): Automated Electrophysiology. [Related pubchem assays (depositor defined):AID2256]; format: functional
# Ephrin type-A receptor 4 = Ephrin type-A receptor 4 (Mus musculus, UniProt Q03137); assay: inhibitors of EphA4 binding to KYL peptide, primary screen, biochemical, colorimetric, mouse EphA4 (AID 689); format: functional
# [4] = target: T2, Corticotropin-releasing factor receptor 2/Corticotropin-releasing factor-binding protein (Homo sapiens, UniProt P24387+Q13324); assay: activators of CRF receptor 2 with binding protein – uHTS hits, confirmation (AID 602473); format: functional; conditions: read-out: EC50_Mean
# T2 sequence (Q13324 whole entry): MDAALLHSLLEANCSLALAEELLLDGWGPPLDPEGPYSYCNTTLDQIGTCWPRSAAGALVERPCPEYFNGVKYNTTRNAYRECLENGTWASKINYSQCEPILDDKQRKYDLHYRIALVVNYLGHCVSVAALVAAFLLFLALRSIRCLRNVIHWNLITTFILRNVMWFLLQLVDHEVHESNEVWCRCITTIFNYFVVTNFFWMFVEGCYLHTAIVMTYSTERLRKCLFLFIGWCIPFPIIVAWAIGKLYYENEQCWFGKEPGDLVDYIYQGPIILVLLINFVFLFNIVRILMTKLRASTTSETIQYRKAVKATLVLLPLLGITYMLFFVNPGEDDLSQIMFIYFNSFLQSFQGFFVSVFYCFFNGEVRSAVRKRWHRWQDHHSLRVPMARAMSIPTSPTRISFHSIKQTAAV
# T2 sequence (P24387 whole entry): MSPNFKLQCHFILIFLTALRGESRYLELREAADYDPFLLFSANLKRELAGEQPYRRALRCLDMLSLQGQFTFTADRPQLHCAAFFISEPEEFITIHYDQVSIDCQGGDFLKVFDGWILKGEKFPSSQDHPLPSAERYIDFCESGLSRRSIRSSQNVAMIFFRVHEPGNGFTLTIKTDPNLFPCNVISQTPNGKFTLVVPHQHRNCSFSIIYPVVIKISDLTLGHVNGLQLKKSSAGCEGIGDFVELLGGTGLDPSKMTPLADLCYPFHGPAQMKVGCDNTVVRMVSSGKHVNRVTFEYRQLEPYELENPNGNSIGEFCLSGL
# [5] = target: UDP-galactopyranose mutase (Mycobacterium tuberculosis, UniProt P9WIQ1); assay: Inhibitors of Mycobacterium tuberculosis UDP-galactopyranose mutase (UGM) enzyme Measured in Biochemical System Using Plate Reader - 2105-02_Inhibitor_Dose_CherryPick_Activity. [Related pubchem assays (depositor defined):AID504439]
# ORF 73 = ORF 73 (Human herpesvirus 8, UniProt O40947); assay: inhibitors of C-LANA binding to LBS DNA, dose response, biochemical, fluorescence polarization, cherry-picked samples (AID 504725); design: species or system Human gammaherpesvirus 8;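 also: fluorescence polarization of a labeled DNA duplex reporting LANA DNA binding; potency is for inhibitors that block LANA binding to the DNA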
# HeLa = assay: HeLa cell cytotoxicity, dose response, cytotoxicity control, 24 h, cherry-picked samples (AID 504726); format: functional, cell-based; conditions: Homo sapiens;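 also: potency for cytotoxicity as loss of luminescence signal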
# Chain of ORF 73 (O40947 whole entry): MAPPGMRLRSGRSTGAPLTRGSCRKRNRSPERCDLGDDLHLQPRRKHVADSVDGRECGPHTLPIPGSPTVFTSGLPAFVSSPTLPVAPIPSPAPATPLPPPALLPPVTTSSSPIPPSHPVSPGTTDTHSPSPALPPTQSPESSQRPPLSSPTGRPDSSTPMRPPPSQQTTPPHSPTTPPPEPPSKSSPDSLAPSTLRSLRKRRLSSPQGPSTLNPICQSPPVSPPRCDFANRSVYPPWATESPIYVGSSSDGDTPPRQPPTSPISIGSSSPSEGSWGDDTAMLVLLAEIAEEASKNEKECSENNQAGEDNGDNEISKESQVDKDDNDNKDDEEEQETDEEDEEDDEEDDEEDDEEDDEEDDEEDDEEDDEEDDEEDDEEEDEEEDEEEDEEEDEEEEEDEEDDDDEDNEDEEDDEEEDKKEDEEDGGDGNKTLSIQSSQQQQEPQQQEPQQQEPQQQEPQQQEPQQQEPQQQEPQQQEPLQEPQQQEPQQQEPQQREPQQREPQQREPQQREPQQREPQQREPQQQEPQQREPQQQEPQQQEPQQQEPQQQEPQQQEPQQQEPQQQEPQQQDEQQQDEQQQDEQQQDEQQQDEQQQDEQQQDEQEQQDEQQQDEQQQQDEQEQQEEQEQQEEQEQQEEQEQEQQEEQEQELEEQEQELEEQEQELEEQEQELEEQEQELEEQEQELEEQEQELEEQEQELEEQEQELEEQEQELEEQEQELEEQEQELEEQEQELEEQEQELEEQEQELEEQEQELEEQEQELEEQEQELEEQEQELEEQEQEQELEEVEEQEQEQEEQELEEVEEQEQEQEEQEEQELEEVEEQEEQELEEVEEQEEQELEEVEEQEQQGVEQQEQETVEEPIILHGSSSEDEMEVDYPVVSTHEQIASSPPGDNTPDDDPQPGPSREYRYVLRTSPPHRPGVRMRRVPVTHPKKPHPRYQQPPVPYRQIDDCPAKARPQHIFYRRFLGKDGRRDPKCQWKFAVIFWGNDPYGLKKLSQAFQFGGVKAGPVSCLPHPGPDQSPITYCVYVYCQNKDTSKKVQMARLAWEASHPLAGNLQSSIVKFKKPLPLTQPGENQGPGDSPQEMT
# Chain of Cytochrome P450 2D6 (P10635 whole entry): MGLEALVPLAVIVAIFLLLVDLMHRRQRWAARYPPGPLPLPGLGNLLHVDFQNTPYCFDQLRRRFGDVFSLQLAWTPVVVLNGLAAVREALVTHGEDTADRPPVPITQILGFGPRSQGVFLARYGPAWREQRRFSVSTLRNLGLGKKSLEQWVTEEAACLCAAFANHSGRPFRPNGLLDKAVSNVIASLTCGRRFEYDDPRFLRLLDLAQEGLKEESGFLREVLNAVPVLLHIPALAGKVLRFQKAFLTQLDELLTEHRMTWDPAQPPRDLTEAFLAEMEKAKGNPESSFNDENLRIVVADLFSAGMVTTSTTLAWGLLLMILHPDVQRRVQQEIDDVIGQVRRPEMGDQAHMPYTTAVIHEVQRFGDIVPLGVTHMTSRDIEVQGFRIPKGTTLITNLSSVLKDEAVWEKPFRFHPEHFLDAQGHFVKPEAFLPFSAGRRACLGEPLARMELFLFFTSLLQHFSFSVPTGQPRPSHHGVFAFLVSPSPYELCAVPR
# Chain of Ephrin type-A receptor 4 (Q03137 whole entry): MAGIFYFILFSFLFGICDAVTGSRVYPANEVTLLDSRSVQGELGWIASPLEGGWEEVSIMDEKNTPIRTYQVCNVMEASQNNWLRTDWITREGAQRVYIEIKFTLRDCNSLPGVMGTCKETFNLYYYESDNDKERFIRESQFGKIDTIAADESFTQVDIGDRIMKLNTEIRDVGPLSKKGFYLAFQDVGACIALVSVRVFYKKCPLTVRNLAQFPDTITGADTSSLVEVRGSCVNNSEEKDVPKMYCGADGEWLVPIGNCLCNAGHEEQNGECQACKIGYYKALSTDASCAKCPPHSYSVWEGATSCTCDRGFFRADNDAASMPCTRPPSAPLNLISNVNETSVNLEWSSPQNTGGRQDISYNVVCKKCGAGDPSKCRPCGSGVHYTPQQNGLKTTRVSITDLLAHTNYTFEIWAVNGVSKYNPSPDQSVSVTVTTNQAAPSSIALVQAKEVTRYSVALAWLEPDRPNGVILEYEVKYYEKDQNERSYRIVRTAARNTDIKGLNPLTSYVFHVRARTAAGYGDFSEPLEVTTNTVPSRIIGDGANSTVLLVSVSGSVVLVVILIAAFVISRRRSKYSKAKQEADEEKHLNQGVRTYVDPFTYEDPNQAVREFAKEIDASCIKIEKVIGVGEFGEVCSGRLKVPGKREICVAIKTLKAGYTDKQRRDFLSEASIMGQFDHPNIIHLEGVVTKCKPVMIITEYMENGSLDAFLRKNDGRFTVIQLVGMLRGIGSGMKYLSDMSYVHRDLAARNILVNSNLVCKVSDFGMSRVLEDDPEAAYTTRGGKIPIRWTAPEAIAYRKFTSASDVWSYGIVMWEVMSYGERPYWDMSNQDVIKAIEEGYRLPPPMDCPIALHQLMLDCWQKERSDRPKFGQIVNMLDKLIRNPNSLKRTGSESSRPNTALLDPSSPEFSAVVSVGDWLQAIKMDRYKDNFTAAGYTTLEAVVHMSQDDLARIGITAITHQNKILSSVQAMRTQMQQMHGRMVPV
# Chain of Voltage-dependent T-type calcium channel subunit alpha-1H (O95180 whole entry): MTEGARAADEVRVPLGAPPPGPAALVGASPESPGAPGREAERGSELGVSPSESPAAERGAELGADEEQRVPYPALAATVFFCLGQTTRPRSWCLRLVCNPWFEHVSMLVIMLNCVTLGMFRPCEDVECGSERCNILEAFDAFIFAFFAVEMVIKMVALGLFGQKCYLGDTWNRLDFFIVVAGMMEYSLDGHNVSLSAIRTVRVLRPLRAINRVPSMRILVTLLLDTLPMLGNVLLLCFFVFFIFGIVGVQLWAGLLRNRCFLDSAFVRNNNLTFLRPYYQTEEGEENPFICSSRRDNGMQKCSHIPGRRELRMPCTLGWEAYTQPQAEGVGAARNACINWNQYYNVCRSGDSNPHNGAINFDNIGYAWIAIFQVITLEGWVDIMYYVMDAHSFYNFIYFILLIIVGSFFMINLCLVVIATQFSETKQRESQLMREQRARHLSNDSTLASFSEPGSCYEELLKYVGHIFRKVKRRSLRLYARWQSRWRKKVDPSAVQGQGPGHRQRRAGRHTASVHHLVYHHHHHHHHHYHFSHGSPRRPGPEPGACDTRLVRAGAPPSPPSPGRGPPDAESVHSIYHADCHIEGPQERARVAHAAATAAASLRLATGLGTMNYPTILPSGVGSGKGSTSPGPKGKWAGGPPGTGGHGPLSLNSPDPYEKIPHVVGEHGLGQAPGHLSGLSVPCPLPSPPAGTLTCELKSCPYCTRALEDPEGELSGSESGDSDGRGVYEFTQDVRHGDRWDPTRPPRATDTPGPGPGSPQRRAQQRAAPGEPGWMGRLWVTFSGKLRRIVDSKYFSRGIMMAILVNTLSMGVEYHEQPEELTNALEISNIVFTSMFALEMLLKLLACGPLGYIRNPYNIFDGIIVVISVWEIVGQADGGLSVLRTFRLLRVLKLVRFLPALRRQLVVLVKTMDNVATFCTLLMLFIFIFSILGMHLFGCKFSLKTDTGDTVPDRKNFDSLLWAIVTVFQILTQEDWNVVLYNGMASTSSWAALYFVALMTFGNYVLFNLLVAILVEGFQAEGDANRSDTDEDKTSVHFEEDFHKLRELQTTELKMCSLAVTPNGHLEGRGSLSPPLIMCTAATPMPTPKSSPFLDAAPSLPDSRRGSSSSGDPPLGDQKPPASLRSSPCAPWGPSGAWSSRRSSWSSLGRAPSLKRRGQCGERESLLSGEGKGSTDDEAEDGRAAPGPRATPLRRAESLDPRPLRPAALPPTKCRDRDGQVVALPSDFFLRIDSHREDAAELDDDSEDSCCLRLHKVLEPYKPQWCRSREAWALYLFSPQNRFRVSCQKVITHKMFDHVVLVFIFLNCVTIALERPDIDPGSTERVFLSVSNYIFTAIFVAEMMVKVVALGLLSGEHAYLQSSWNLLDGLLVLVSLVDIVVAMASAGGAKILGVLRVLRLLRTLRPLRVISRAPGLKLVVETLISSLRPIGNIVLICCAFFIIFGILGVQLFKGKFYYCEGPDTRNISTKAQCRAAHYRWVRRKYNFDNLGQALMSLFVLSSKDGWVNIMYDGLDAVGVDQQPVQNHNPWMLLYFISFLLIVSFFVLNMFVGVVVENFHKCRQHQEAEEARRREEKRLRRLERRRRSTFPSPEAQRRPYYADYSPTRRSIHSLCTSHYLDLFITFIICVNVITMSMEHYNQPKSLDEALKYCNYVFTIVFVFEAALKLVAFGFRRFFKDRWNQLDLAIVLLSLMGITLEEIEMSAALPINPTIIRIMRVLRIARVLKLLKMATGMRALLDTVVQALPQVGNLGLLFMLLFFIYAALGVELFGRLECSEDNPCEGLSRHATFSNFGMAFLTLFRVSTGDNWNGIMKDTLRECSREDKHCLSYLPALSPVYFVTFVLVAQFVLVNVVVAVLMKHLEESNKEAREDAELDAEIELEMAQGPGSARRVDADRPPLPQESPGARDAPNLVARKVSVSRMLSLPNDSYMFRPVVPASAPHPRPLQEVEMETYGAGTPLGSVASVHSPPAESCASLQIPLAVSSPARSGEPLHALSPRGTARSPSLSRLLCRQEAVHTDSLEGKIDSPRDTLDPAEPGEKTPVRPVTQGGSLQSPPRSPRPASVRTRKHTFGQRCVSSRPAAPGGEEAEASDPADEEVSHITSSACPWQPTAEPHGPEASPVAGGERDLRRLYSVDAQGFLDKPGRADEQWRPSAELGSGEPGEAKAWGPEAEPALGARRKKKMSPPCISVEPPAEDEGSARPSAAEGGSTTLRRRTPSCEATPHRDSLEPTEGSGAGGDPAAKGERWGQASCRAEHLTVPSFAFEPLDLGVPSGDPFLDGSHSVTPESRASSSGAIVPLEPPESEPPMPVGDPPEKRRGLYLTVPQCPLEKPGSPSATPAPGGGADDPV
structure (smiles),measurement,setting,value
CC(C)CCN1CCC[C@H](NC(=O)COc2ccc(F)c(Cl)c2)C1,EC50,[1],10 µM (active)
CCCS(=O)(=O)N1CCCC(C(=O)NCCCOCC)C1 (centres undefined),AC50,Cytochrome P450 2D6,inconclusive
Cc1cc(N2CCOCC2)nc2ccccc12,IC50,[2],39 µM (active)
same,IC50,[3],140 µM (inactive)
CCCCCn1nc(-c2ccccc2)c2nc3ccccc3nc21,IC50,Ephrin type-A receptor 4,6.11 µM (active)
same,EC50,[4],4.97 µM (active)
same,AC50,[5],31.7 µM (active)
same,AC50,ORF 73,56.5 µM (active)
same,AC50,HeLa,> 350 µM (inactive)
